Publication PMC6522510 (Nature Communications, 2019)
Read-outs that look alike come from different tables or passages of the source.

How the values were obtained:
Set-up in all cases: species or system AML cell lines (8); Primary HTS, single concentration about 10 uM, Cell Titer Glo viability; log10 luminescence, per cent inhibition relative to cycloheximide control
Settings in all cases: 72 h, inhibitor
[1] = test system: CHRF288-11
[2] = test system: CMK
[3] = test system: CMS
[4] = test system: M07e
[5] = test system: ML-2
[6] = test system: MOLM-13
[7] = test system: MV4-11
[8] = test system: U937
[9] = relative to cycloheximide control, log10 luminescence

CC(C)c1ccc(Nc2nccc(-c3cnn4ncccc34)n2)cc1 [SJ000573192-1, U16419/190/2]
CHRF288-11 %inh [1, 9]: 27.16% | CMK %inh [2, 9]: 58.79% | CMS %inh [3, 9]: 101.8% | M07e %inh [4, 9]: 49.73% | ML-2 %inh [5, 9]: 59.67% | MOLM-13 %inh [6, 9]: 111.4% | MV4-11 %inh [7, 9]: 84.54% | U937 %inh [8, 9]: 82.47%

CCc1cccc(NC(=O)Nc2ccc(Oc3ccc4nc(NC(=O)OC)[nH]c4c3)cc2)c1 [SJ000573193-1, T229/79/1]
CHRF288-11 %inh [1, 9]: -2.602% | CMK %inh [2, 9]: 50% | CMS %inh [3, 9]: -0.1127% | M07e %inh [4, 9]: 0.5293% | ML-2 %inh [5, 9]: 5.896% | MOLM-13 %inh [6, 9]: 61.84% | MV4-11 %inh [7, 9]: 84.23% | U937 %inh [8, 9]: 3.761%

Cc1nnc(-c2ccc(C)c(-c3ccc(C(=O)Nc4cccc(C#N)c4)cc3)c2)o1 [SJ000573195-1, R4373/145/1]
CHRF288-11 %inh [1, 9]: -2.997% | CMK %inh [2, 9]: 1.609% | CMS %inh [3, 9]: -1.248% | M07e %inh [4, 9]: -0.9532% | ML-2 %inh [5, 9]: 2.033% | MOLM-13 %inh [6, 9]: 1.779% | MV4-11 %inh [7, 9]: 0.5717% | U937 %inh [8, 9]: -2.444%

COc1ccc2cc(-c3c(-c4ccncc4)nc(-c4ccc(S(C)(=O)=O)cc4C)n3C)ccc2c1 [SJ000573196-1, NJ44157-082B1]
CHRF288-11 %inh [1, 9]: 3.66% | CMK %inh [2, 9]: 17.63% | CMS %inh [3, 9]: 1.339% | M07e %inh [4, 9]: -0.09869% | ML-2 %inh [5, 9]: 0.1738% | MOLM-13 %inh [6, 9]: 0.5598% | MV4-11 %inh [7, 9]: 2.69% | U937 %inh [8, 9]: -1.98%

Fc1ccc(-c2c(-c3ccncc3)nc3n2CCS3)cc1 [SJ000573197-1, EXSB/CR-9802-49AZ]
CHRF288-11 %inh [1, 9]: 6.614% | CMK %inh [2, 9]: 1.128% | CMS %inh [3, 9]: 6.192% | M07e %inh [4, 9]: 1.347% | ML-2 %inh [5, 9]: 4.223% | MOLM-13 %inh [6, 9]: -3.2% | MV4-11 %inh [7, 9]: 10.89% | U937 %inh [8, 9]: 19.21%

CS(=O)(=O)Nc1ccc(-c2ccc3c(NC(=O)C4CC4)n[nH]c3c2)cc1 [SJ000573198-1, VB100064-183A1]
CHRF288-11 %inh [1, 9]: 1.64% | CMK %inh [2, 9]: 0.4517% | CMS %inh [3, 9]: -0.1456% | M07e %inh [4, 9]: 7.577% | ML-2 %inh [5, 9]: 1.388% | MOLM-13 %inh [6, 9]: 0.3925% | MV4-11 %inh [7, 9]: 1.756% | U937 %inh [8, 9]: -2.07%

CN(C)CCCNc1nccc(-c2c(-c3ccc(F)cc3)nn3cc(C(F)(F)F)ccc23)n1 [SJ000573200-1, U14929/105/1]
CHRF288-11 %inh [1, 9]: 4.716% | CMK %inh [2, 9]: 6.318% | CMS %inh [3, 9]: -0.7094% | M07e %inh [4, 9]: 5.185% | ML-2 %inh [5, 9]: 2.988% | MOLM-13 %inh [6, 9]: 3.151% | MV4-11 %inh [7, 9]: 2.615% | U937 %inh [8, 9]: 2.291%

CCN1CCC(C(=O)Nc2n[nH]c3nnc(-c4cccc(F)c4F)cc23)CC1 [SJ000573202-1, JW48822-155B0]
CHRF288-11 %inh [1, 9]: 19.17% | CMK %inh [2, 9]: 106.6% | CMS %inh [3, 9]: 98.67% | M07e %inh [4, 9]: 22.9% | ML-2 %inh [5, 9]: 2.893% | MOLM-13 %inh [6, 9]: 18.95% | MV4-11 %inh [7, 9]: 52.48% | U937 %inh [8, 9]: 29.66%

CCn1c(-c2nonc2N)nc2ccncc21 [SJ000573203-1, JS100940-045A1]
CHRF288-11 %inh [1, 9]: 39.85% | CMK %inh [2, 9]: 40.02% | CMS %inh [3, 9]: -0.06255% | M07e %inh [4, 9]: -2.227% | ML-2 %inh [5, 9]: 2.303% | MOLM-13 %inh [6, 9]: 0.1335% | MV4-11 %inh [7, 9]: -1.945% | U937 %inh [8, 9]: 1.08%

NS(=O)(=O)c1cccc(-c2ccc3c(NC(=O)C4CC4)n[nH]c3c2)c1 [SJ000573205-1, VB100064-175A1]
CHRF288-11 %inh [1, 9]: 4.666% | CMK %inh [2, 9]: 1.524% | CMS %inh [3, 9]: -2.181% | M07e %inh [4, 9]: -1.196% | ML-2 %inh [5, 9]: 8.415% | MOLM-13 %inh [6, 9]: 11.82% | MV4-11 %inh [7, 9]: 1.069% | U937 %inh [8, 9]: 7.36%

COC(=O)c1cncc(/C=C/c2c(C)cc(O)cc2C)c1 [SJ000573206-1, U12614/140/1]
CHRF288-11 %inh [1, 9]: 31.61% | CMK %inh [2, 9]: 80.78% | CMS %inh [3, 9]: 1.868% | M07e %inh [4, 9]: 18.22% | ML-2 %inh [5, 9]: 4.986% | MOLM-13 %inh [6, 9]: 1.326% | MV4-11 %inh [7, 9]: 6.215% | U937 %inh [8, 9]: 23.01%

CCCN(CCS(C)(=O)=O)Cc1ccc(-c2ccc3ncnc(Nc4ccc(OCc5cccc(F)c5)c(Cl)c4)c3c2)o1 [SJ000573207-1, U16419/108/1]
CHRF288-11 %inh [1, 9]: 4.347% | CMK %inh [2, 9]: 1.892% | CMS %inh [3, 9]: -1.914% | M07e %inh [4, 9]: -0.08315% | ML-2 %inh [5, 9]: 1.001% | MOLM-13 %inh [6, 9]: 2.051% | MV4-11 %inh [7, 9]: 1.09% | U937 %inh [8, 9]: 4.462%

CS(=O)(=O)CCNCc1nc(-c2ccc3ncnc(Nc4ccc(F)c(Cl)c4)c3c2)cs1 [SJ000573208-1, R2677/150/1]
CHRF288-11 %inh [1, 9]: 0.6669% | CMK %inh [2, 9]: 3.345% | CMS %inh [3, 9]: 3.363% | M07e %inh [4, 9]: 1.192% | ML-2 %inh [5, 9]: 0.9399% | MOLM-13 %inh [6, 9]: 1.729% | MV4-11 %inh [7, 9]: 1.268% | U937 %inh [8, 9]: -0.3412%

O=C(Nc1n[nH]c2nnc(-c3cccnc3)cc12)C1CC1 [SJ000573209-1, VB49227-069A2]
CHRF288-11 %inh ([1]; 10 µM): 36.24% | CMK %inh ([2]; 10 µM): 119.5% | CMS %inh ([3]; 10 µM): 99.51% | M07e %inh ([4]; 10 µM): 20.82% | ML-2 %inh ([5]; 10 µM): 10.24% | MOLM-13 %inh ([6]; 10 µM): 58.37% | MV4-11 %inh ([7]; 10 µM): 53.21% | U937 %inh ([8]; 10 µM): 14.39%

COc1ccc2ncnc(Nc3ccc(OCc4ccccc4)cc3)c2c1 [SJ000573210-1, 0142W 95C*D]
CHRF288-11 %inh [1, 9]: -3.911% | CMK %inh [2, 9]: 1.162% | CMS %inh [3, 9]: 0.3657% | M07e %inh [4, 9]: -3.821% | ML-2 %inh [5, 9]: -0.6695% | MOLM-13 %inh [6, 9]: 13.25% | MV4-11 %inh [7, 9]: 1.39% | U937 %inh [8, 9]: -0.1655%

CCn1c(-c2nonc2N)nc2cncc(C(=O)N3CC[C@H](N)C3)c21 [SJ000573211-1, MH203936-065A1]
CHRF288-11 %inh [1, 9]: 24.28% | CMK %inh [2, 9]: 50.04% | CMS %inh [3, 9]: 6.352% | M07e %inh [4, 9]: 8.501% | ML-2 %inh [5, 9]: 13.35% | MOLM-13 %inh [6, 9]: 12.04% | MV4-11 %inh [7, 9]: 35.54% | U937 %inh [8, 9]: 24.07%

CC1=C(C(=O)Nc2ccc3[nH]ncc3c2)C(c2ccc(F)cc2)NC(=O)N1 (stereo not shown) [SJ000573212-1, SD203460-064A1]
CHRF288-11 %inh [1, 9]: 14.28% | CMK %inh [2, 9]: 22.73% | CMS %inh [3, 9]: 3.347% | M07e %inh [4, 9]: 2.046% | ML-2 %inh [5, 9]: 7.379% | MOLM-13 %inh [6, 9]: -1.98% | MV4-11 %inh [7, 9]: 13.33% | U937 %inh [8, 9]: 0.2192%

O=C1Nc2ccc(-c3cccnc3)cc2C1=Cc1cc(Br)c(O)c(Br)c1 [SJ000573213-1, R10489/16/2]
CHRF288-11 %inh [1, 9]: 4.693% | CMK %inh [2, 9]: 0.4308% | CMS %inh [3, 9]: -1.986% | M07e %inh [4, 9]: 2.589% | ML-2 %inh [5, 9]: 4.287% | MOLM-13 %inh [6, 9]: 4.678% | MV4-11 %inh [7, 9]: -0.07867% | U937 %inh [8, 9]: -1.775%

CCNC(=O)O[C@H]1CN[C@H](C#Cc2cc3ncnc(Nc4ccc(OCc5cccc(F)c5)c(Cl)c4)c3s2)C1 [SJ000573214-1, U20348/125/4]
CHRF288-11 %inh [1, 9]: 5.639% | CMK %inh [2, 9]: -1.307% | CMS %inh [3, 9]: 3.079% | M07e %inh [4, 9]: 3.561% | ML-2 %inh [5, 9]: 3.073% | MOLM-13 %inh [6, 9]: 0.5641% | MV4-11 %inh [7, 9]: 0.06144% | U937 %inh [8, 9]: -0.8245%

O=C(O[C@H]1CN[C@H](C#Cc2cc3ncnc(Nc4ccc5c(cnn5Cc5ccccc5)c4)c3s2)C1)N1CCOCC1 [SJ000573215-1, U19635/172/2]
CHRF288-11 %inh [1, 9]: 51% | CMK %inh [2, 9]: 78.93% | CMS %inh [3, 9]: 5.16% | M07e %inh [4, 9]: -0.8707% | ML-2 %inh [5, 9]: 2.941% | MOLM-13 %inh [6, 9]: 2.242% | MV4-11 %inh [7, 9]: 1.975% | U937 %inh [8, 9]: 3.001%

COc1cccc(-n2ncc3c(N/N=C/c4cccc(F)c4)ncnc32)c1 [SJ000573217-1, U18028/186/1]
CHRF288-11 %inh [1, 9]: -0.7991% | CMK %inh [2, 9]: -7.034% | CMS %inh [3, 9]: 0.08051% | M07e %inh [4, 9]: -2.637% | ML-2 %inh [5, 9]: 0.8639% | MOLM-13 %inh [6, 9]: -3.305% | MV4-11 %inh [7, 9]: -3.164% | U937 %inh [8, 9]: -3.323%

COc1ccc2[nH]c3c4[nH]c5ccc(OC)cc5c4c4c(c3c2c1)C(=O)NC4=O [SJ000573218-1, 3744W 92C*D]
CHRF288-11 %inh [1, 9]: 13.67% | CMK %inh [2, 9]: 26.51% | CMS %inh [3, 9]: 16.49% | M07e %inh [4, 9]: 25.27% | ML-2 %inh [5, 9]: 9.324% | MOLM-13 %inh [6, 9]: 81.75% | MV4-11 %inh [7, 9]: 76.35% | U937 %inh [8, 9]: 14.28%

COc1cccc(-n2ncc3c(N/N=C/c4ccc(F)cc4)ncnc32)c1 [SJ000573219-1, U18028/188/1]
CHRF288-11 %inh [1, 9]: -1.076% | CMK %inh [2, 9]: -2.994% | CMS %inh [3, 9]: 1.318% | M07e %inh [4, 9]: 4.179% | ML-2 %inh [5, 9]: 1.489% | MOLM-13 %inh [6, 9]: 0.1437% | MV4-11 %inh [7, 9]: -2.52% | U937 %inh [8, 9]: -0.8072%
